# Measurements: patent US20110293593A1, “SIVA 2 STABILIZATION” (YEDA RESEARCH AND DEVELOPMENT CO., LTD., priority 2008, published 2011)
# Peptide text beside a SMILES is read from it. * marks the point of attachment. Cbz = O=C(OCc1ccccc1)*
# Key:
# SIVA2 [1] = assay: SIVA2 level/stabilization in transfected HEK-293T and EcR-293 cells, western blotting; format: cell-based, human; conditions: HEK-293T
# Description: (A) Expression of SIVA1 and SIVA2 in various cell lines. For each cell line, cellular protein (30 μg) was resolved by 13.5% SDS-PAGE and probed with anti-SIVA antibody. The two lanes at the right show SIVA1 and SIVA2 overexpressed in HEK-293T cells (for each protein, 2 μg cDNA/well in 6-well plates). (B) Several SIVA isoforms are expressed in PBMCs. […] (C) Ligand activation increases the amount of SIVA2 in resting PBMCs. Cells (2×10^6) were treated with the indicated ligands for 8 h and the cell lysates were analyzed by western blotting. […] The cells were stimulated with PHA (1 μg/ml) for 48 h, washed twice with phosphate-buffered saline, and incubated for an additional period of 18 h without PHA. Ligands and genotoxic agents (camptothecin (CPT) 10 μM and cisplatin (CIS) 50 μM) were then applied for 18 h. MG132 was applied for the last 4 h of treatment. Except where otherwise indicated, MG132 was applied in this study at a concentration of […] denotes a non-specific band serving as loading control. […] PBMCs were activated as in FIG. 1d. Ligands were applied to the indicated cell types for 18 h. Semi-quantitative RT-PCR for SIVA message was performed as described in Methods. GAPDH was used as a basis for normalization. […] SIVA2 or SIVA1 plasmids (0.5 μg) were transfected, and 18 h later ligands were applied for 8 h. Total-cell lysates were analyzed by western blotting using anti-SIVA antibody. TNF-induced SIVA2 stabilization was assessed in EcR-293-CD27 cells. (G) Inducibly expressed SIVA2 is stabilized by CD70. EcR-293-CD27-SIVA2 cells (see Methods) were treated with ponasterone and CD70 as indicated. Total-cell lysates were analyzed by western blotting using LDH as the loading control (bottom panel). […] HEK-293T cells were transfected with FLAG-SIVA2 and analyzed 24 h after transfection. MG132 was applied for the last 4 h of treatment. TCL, total cell lysate. (I) Differential effects of genotoxic agents on the expression of SIVA1 and SIVA2. Top: HepG2 cells were treated with CPT for 18 h. When indicated, they were transfected with pSUPER SIVA 30 h prior to CPT application. Cells lysates were analyzed by western blotting using anti-SIVA antibody. Middle: HepG2 cells were exposed to UVC (20 J/m^2) and levels of SIVA proteins were determined after 18 h of treatment. […] Bottom: HEK-293T cells were transfected with 0.5 μg of FLAG-SIVA2. CPT and CD40L were applied, 8 h after transfection, for a further 18 h.
# HEK-293T cells cotransfected with NIK and SIVA2 were metabolically labeled with azido-GlcNAc, in-vitro biotinylated, and immunoprecipitated. The biotin-labeled GlcNAc moieties in SIVA2 were detected with streptavidin horseradish peroxidase (HRP). (B) SIVA binds to wheatgerm-agglutinin. The plasmids for SIVA2, alone or together with NIK or TRAF2, were transiently expressed in HEK-293T cells. Lactacystin was applied for the last 6 h of the 24-h treatment period. Lysates were analyzed for expression (right panel) and WGA binding (left panel) of SIVA2. N-acetyl-D-glucosamine (0.5 M) was added as a competitor for WGA binding. […] FLAG-SIVA2 was cotransfected with myc-NIK into HEK-293T cells and immunoprecipitated with anti-FLAG-M2 beads. The immunoprecipitated beads were boiled with 1% SDS and the eluted proteins were treated with […] hexosaminidase as described (Whelan, 2006). The samples were collected after treatment for 4, 8, and 20 h, diluted with WGA binding buffer, and lectin binding was assayed as described in Methods. Immunoprecipitation of the protein with anti-FLAG-M2 beads after treatment for 8 h as described above, followed by western analysis, confirmed that despite having lost the ability to bind to WGA the protein remained intact. ‘Sup’, SIVA protein remaining unbound after the reaction. […] The plasmids were transiently expressed in HEK-293T cells. DON (50 μM) was applied for the last 16 h and MG132 for the last 6 h of the 28-h treatment period. […] The experiment was performed as in (D). […]
# SIVA2 [2] = assay: SIVA2 protein level in PBMCs, western blotting with anti-SIVA antibody; format: cell-based, human; conditions: PHA-activated PBMCs; CPT 10 μM, CIS 50 μM for 18 h; MG132 last 4 h
# Description: For each cell line, cellular protein (30 μg) was resolved by 13.5% SDS-PAGE and probed with anti-SIVA antibody. The two lanes at the right show SIVA1 and SIVA2 overexpressed in HEK-293T cells (for each protein, 2 μg cDNA/well in 6-well plates). […] Cells (2×10^6) were treated with the indicated ligands for 8 h and the cell lysates were analyzed by western blotting. […] The cells were stimulated with PHA (1 μg/ml) for 48 h, washed twice with phosphate-buffered saline, and incubated for an additional period of 18 h without PHA. Ligands and genotoxic agents (camptothecin (CPT) 10 μM and cisplatin (CIS) 50 μM) were then applied for 18 h. MG132 was applied for the last 4 h of treatment. Except where otherwise indicated, MG132 was applied in this study at a concentration of […] denotes a non-specific band serving as loading control. […] PBMCs were activated as in FIG. 1d. Ligands were applied to the indicated cell types for 18 h. Semi-quantitative RT-PCR for SIVA message was performed as described in Methods. GAPDH was used as a basis for normalization. […] SIVA2 or SIVA1 plasmids (0.5 μg) were transfected, and 18 h later ligands were applied for 8 h. Total-cell lysates were analyzed by western blotting using anti-SIVA antibody. […] EcR-293-CD27-SIVA2 cells (see Methods) were treated with ponasterone and CD70 as indicated. Total-cell lysates were analyzed by western blotting using LDH as the loading control (bottom panel). […] HEK-293T cells were transfected with FLAG-SIVA2 and analyzed 24 h after transfection. MG132 was applied for the last 4 h of treatment. TCL, total cell lysate. […] Top: HepG2 cells were treated with CPT for 18 h. When indicated, they were transfected with pSUPER SIVA 30 h prior to CPT application. Cells lysates were analyzed by western blotting using anti-SIVA antibody. Middle: HepG2 cells were exposed to UVC (20 J/m^2) and levels of SIVA proteins were determined after 18 h of treatment. […] Bottom: HEK-293T cells were transfected with 0.5 μg of FLAG-SIVA2. CPT and CD40L were applied, 8 h after transfection, for a further 18 h.
# Cells. Peripheral-blood mononuclear cells (PBMCs) were isolated from buffy-coat samples and cultured as described (Ramakrishnan et al., 2004). Ecdysone-inducible EcR-293-CD27 cell lines expressing SIVA2 (EcR-293-CD27-SIVA2) or SIVA1 (EcR-293-CD27-SIVA1) and EcR-293-CD40 were generated by transfection using the calcium phosphate method according to the instructions of the manufacturer (Invitrogen). All adherent cells—HEK-293T, EcR-293 (Invitrogen), HeLa, HeLa T-REx (Invitrogen), and HepG2—were cultured in Dulbecco's modified Eagle's medium. Both culture media were supplemented with 10% fetal calf serum, 100 U/ml pencillin, and 100 μg/ml streptomycin. The human lymphoblastoid lines Ramos (Human Burkitt's lymphoma cell line) and BJAB (B-lymphoblastoma cell line) were cultured in RPMI medium. Ecdysone-inducible EcR293-CD27 and EcR293-CD40 cell lines were generated by their stable transfection with cDNAs for human CD27 and CD40, respectively. EcR293-CD27 cell lines expressing SIVA2 (EcR293-CD27-SIVA2) or SIVA1 (EcR293-CD27-SIVA1) were generated by transfection using the calcium phosphate method, and myc NIK and myc NIK (K670A) were later introduced into these cells by retroviral transduction and selection with 1 μg/ml puromycin. Ramos cells constitutively expressing myc-NIK were generated by retroviral transduction, followed by selection with 1 μg/ml puromycin. […]
smiles,measurement,setting,value
CC(C)C[C@@H](C=O)NC(=O)[C@H](CC(C)C)NC(=O)[C@H](CC(C)C)NC(=O)OCc1ccccc1 [MG132] (Cbz-Leu-Leu-Leu-aldehyde),accumulation of polyubiquitinated SIVA2,"SIVA2 [1]; FLAG-SIVA2, MG132 last 4 h",enhances accumulation of the polyubiquitinated protein
same,stabilization of transiently expressed SIVA2,"SIVA2 [1]; FLAG-SIVA2, MG132 last 4 h",stabilizes transiently expressed SIVA2
same,stabilization of SIVA2 (1-58) (SIVA N-terminus),SIVA2 [1]; MG132 25 uM last 6 h of 24 h,stabilizes SIVA N-terminus
same,stabilization of SIVA2 serine mutants,SIVA2 [1]; MG132 added 18 h after transfection for 6 h,stabilize the SIVA2 serine mutants that cannot be stabilized by NIK
same,SIVA2 levels in activated PBMCs,SIVA2 [2],increase SIVA2 levels
"CC(=O)N[C@H]1[C@@H](OCc2ccccc2)O[C@H](CO)[C@H](O)[C@@H]1O [BADGP, benzyl-α-GalNAc]",NIK-induced SIVA2 stabilization,"SIVA2 [1]; NIK + SIVA2, 0.7, 1.4, or 2.0 mM BADGP last 16 h of 28 h",blocks NIK-induced SIVA2 stabilization
"CC[C@@]1(O)C(=O)OCc2c1cc1n(c2=O)Cc2cc3ccccc3nc2-1 [CPT, camptothecin]",cytokine (CD40)-induced stabilization/enhancement of SIVA2 under genotoxic agent,"SIVA2 [1]; FLAG-SIVA2, CPT and CD40L for 18 h",decreased
same,SIVA2 levels in activated PBMCs,SIVA2 [2],"but not genotoxic stress, increase SIVA2 levels"
"[N-]=[N+]=CC(=O)CC[C@H](N)C(=O)O [DON, 6-diazo-5-oxo-L-norleucine]",MG132-induced SIVA2 stabilization,"SIVA2 [1]; DON 50 μM last 16 h, MG132 last 6 h",does not affect MG132-induced stabilization
same,TRAF2-induced SIVA2 stabilization,SIVA2 [1]; DON 50 μM last 16 h of 28 h,interferes with TRAF2-induced SIVA2 stabilization
same,NIK-mediated stabilization of wild-type SIVA2,SIVA2 [1]; DON as in FIG. 3D,blocks the NIK-mediated stabilization of wild-type SIVA2
same,residual stabilization by NIK of the SIVA2 6SA mutant,SIVA2 [1]; DON as in FIG. 3D,has no effect on the residual stabilization by NIK of the SIVA2 6SA mutant
"N.N.[Cl][Pt][Cl] [CIS, cisplatin]",SIVA2 levels in activated PBMCs,SIVA2 [2],"but not genotoxic stress, increase SIVA2 levels"
